Data published in US20060069132A1, “Azolecarboxamide herbicides” (priority 2004, published 2006).

Experiments:
barnyardgrass = experiment: Test E pre-/postemergence herbicide test; assay type: in vivo, Echinochloa crus-galli; conditions: Preemergence
Description: (§1) Seeds of plant species selected from bipinnate beggarticks (Bidens bipinnata L.), hairy beggarticks (Bidens radiata Thuill.), bermudagrass (Cynodon dactylon (L.) Pers.), Surinam grass (Urochloa decumbens (Staph) R. D. Webster, previously named Brachiaria decumbens Stapf), large crabgrass (Digitaria sanguinalis (L.) Scop.), green foxtail (Setaria viridis (L.) P. Beauv.), goosegrass (Eleusine indica (L.) Gaertn.), johnsongrass (Sorghum halepense (L.) Pers.), kochia (Kochia scoparia (L.) Schrad.), pitted morningglory (Ipomoea lacunosa L.), purple nutsedge (Cyperus rotundus L.), common ragweed (Ambrosia elatior L.), mustard (Brassica nigra (L.) W. D. J. Koch), guineagrass (Panicum maximum Jacq.), dallisgrass (Paspalum dilatatum Poir.), barnyardgrass (Echinochloa crus-galli (L). P. Beauv.), southern sandbur (Cenchrus echinatus L.), common sowthistle (Sonchus oleraceous L.), prickly sida (Sida spinosa L.), Italian ryegrass (Lolium multiflorum Lam.), common purslane (Portulaca oleracea L.), broadleaf signalgrass (Brachiaria platyphylla (Griseb.) Nash), common groundsel (Senecio vulgaris L.), common chickweed (Stellaria media (L.) Vill/Cyr.), tropical spiderwort (Commelina benghalensis L.), annual bluegrass (Poa annua L.), downy bromegrass (Bromus tectorum L.), itchgrass (Rottboellia cochinchinensis (L.) L.f.), quackgrass (Elytrigia repens (L.) Nevski), Canada horseweed (Erigeron Canadensis L.), field bindweed (Convolvulus arvensis L.), spotted spurge (Euphorbia maculata L.), common mallow (Malva sylvestris (=s silvestris) L.), and Russian thistle (Salsola kali L. ssp. Ruthenica (Iljin) Soo) were planted and treated preemergence with test chemicals formulated in a non-phytotoxic solvent mixture which included a surfactant.
(§2) At the same time, plants selected from these weed species were treated with postemergence applications of some of the test chemicals formulated in the same manner. Plants ranged in height from 2 to 18 cm (1- to 4-leaf stage) for postemergence treatments. Treated plants and controls were maintained in a greenhouse for 12 to 14 days, after which time all species were compared to controls and visually evaluated. Plant response ratings, summarized in Table E, are based on a scale of 0 to 100 where 0 is no effect and 100 is complete control. A dash (-) response means no test result.

prickly sida = experiment: Test E pre-/postemergence herbicide test; assay type: in vivo, Sida spinosa; conditions: Preemergence
Description: as §1, §2

downy bromegrass [1] = experiment: Test E pre-/postemergence herbicide test; assay type: in vivo, Bromus tectorum; conditions: Preemergence
Description: as §1, §2

itchgrass = experiment: Test E pre-/postemergence herbicide test; assay type: in vivo, Rottboellia cochinchinensis; conditions: Preemergence
Description: as §1, §2

common mallow = experiment: Test E pre-/postemergence herbicide test; assay type: in vivo, Malva sylvestris; conditions: Preemergence
Description: as §1, §2

winter barley = experiment: Test C postemergence herbicide test; assay type: in vivo, Hordeum vulgare
Method in brief: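 Plants were grown to the 1- to 4-leaf stage (2–18 cm) and then treated postemergence, or grown to the 2-leaf stage for the flooded paddy test. They were held in a greenhouse for 12 to 14 days and then scored by eye against controls, where 0 is no effect and 100 is complete control.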

blackgrass = experiment: Test C postemergence herbicide test; assay type: in vivo, Alopecurus myosuroides
Method in brief: (§3)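 Injury scored visually against controls on a 0 (no effect) to 100 (complete control) scale, 12 to 14 days after treatment in greenhouse. Flooded paddy plants treated at 2-leaf stage; postemergence plants at 1- to 4-leaf stage, 2 to 18 cm tall.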

canarygrass = experiment: Test C postemergence herbicide test; assay type: in vivo, Phalaris minor
Method in brief: as §3

downy bromegrass [2] = experiment: Test C postemergence herbicide test; assay type: in vivo, Bromus tectorum
Method in brief: as §3

green foxtail = experiment: Test C postemergence herbicide test; assay type: in vivo, Setaria viridis
Method in brief: as §3

Italian ryegrass = experiment: Test C postemergence herbicide test; assay type: in vivo, Lolium multiflorum
Method in brief: as §3

wheat = experiment: Test C postemergence herbicide test; assay type: in vivo, Triticum aestivum
Method in brief: as §3

wild oat = experiment: Test C postemergence herbicide test; assay type: in vivo, Avenafatua
Method in brief: as §3

windgrass = experiment: Test C postemergence herbicide test; assay type: in vivo, Apera spica-venti
Method in brief: as §3

[3] = 250 g ai/ha, scale 0 (no effect) to 100 (complete control)
[4] = 500 g ai/ha, scale 0 (no effect) to 100 (complete control)
[5] = Postemergence, 500 g ai/ha, scale 0 to 100
[6] = Postemergence, 250 g ai/ha, scale 0 to 100, 0 no effect, 100 complete control
[7] = postemergence, 125 g ai/ha, scale 0 to 100
[8] = postemergence, 62 g ai/ha, scale 0 to 100
[9] = Postemergence, 500 g ai/ha, scale 0 to 100, 0 no effect, 100 complete control

`CCc1nn(C(C)(C)CC)nc1C(=O)Nc1cccc(C(=O)N(C)C)c1` [Compound 372] was tested. Which “Plant response rating, Barnyardgrass” value (barnyardgrass; 62 g ai/ha, scale 0 to 100) did it give?
Its value is 50.

What about the “Plant response rating, Barnyardgrass” value (barnyardgrass; 125 g ai/ha, scale 0 to 100) of the same compound?
The value was 70.

And the “Plant response rating, Barnyardgrass” value (barnyardgrass; [3])?
The value was 80.

And the “Plant response rating, Barnyardgrass” value (barnyardgrass; [4])?
Its value is 95.

What about the “Plant response rating, Prickly Sida” value (prickly sida; 62 g ai/ha, scale 0 to 100) of the same compound?
The value was 20.

And the “Plant response rating, Prickly Sida” value (prickly sida; [3])?
Its value is 95.

What about the “Plant response rating, Prickly Sida” value (prickly sida; [4]) of the same compound?
The value was 95.

What about the “Plant response rating, Bromegrass, Downy” value (downy bromegrass [1]; 62 g ai/ha, scale 0 to 100) of the same compound?
The value was 20.

And the “Plant response rating, Bromegrass, Downy” value (downy bromegrass [1]; 125 g ai/ha, scale 0 to 100)?
Its value is 70.

What about the “Plant response rating, Bromegrass, Downy” value (downy bromegrass [1]; [3]) of the same compound?
Its value is 80.

And the “Plant response rating, Bromegrass, Downy” value (downy bromegrass [1]; [4])?
The value was 85.

What about the “Plant response rating, Itchgrass” value (itchgrass; 62 g ai/ha, scale 0 to 100) of the same compound?
The value was 30.

And the “Plant response rating, Itchgrass” value (itchgrass; 125 g ai/ha, scale 0 to 100)?
Its value is 60.

And the “Plant response rating, Itchgrass” value (itchgrass; [3])?
Its value is 60.

And the “Plant response rating, Itchgrass” value (itchgrass; [4])?
Its value is 80.

And the “Plant response rating, Mallow” value (common mallow; 62 g ai/ha, scale 0 to 100)?
The value was 50.

What about the “Plant response rating, Mallow” value (common mallow; 125 g ai/ha, scale 0 to 100) of the same compound?
The value was 50.

And the “Plant response rating, Mallow” value (common mallow; [3])?
The value was 80.

And the “Plant response rating, Mallow” value (common mallow; [4])?
Its value is 90.

`Cc1nn(C(C)(C)C)nc1C(=O)Nc1cccc(C(=O)N(C)C)c1` [Compound 391] was tested. Which “Barley, Winter plant response rating” value (winter barley; [5]) did it give?
The value was 30.

And the “Plant response rating, Barley, Winter” value (winter barley; [6])?
Its value is 30.

What about the “Plant response rating, Barley, Winter” value (winter barley; postemergence, 125 g ai/ha, scale 0 to 100 (0 no effect, 100 complete control)) of the same compound?
The value was 10.

What about the “Plant response rating, Barley, Winter” value (winter barley; postemergence, 62 g ai/ha, scale 0 to 100 (0 no effect, 100 complete control)) of the same compound?
The value was 10.

What about the “Blackgrass plant response rating” value (blackgrass; [5]) of the same compound?
The value was 65.

And the “Plant response rating, Blackgrass” value (blackgrass; [6])?
The value was 55.

What about the “Plant response rating, Blackgrass” value (blackgrass; [7]) of the same compound?
The value was 45.

What about the “Plant response rating, Blackgrass” value (blackgrass; [8]) of the same compound?
The value was 40.

What about the “Plant response rating, Canarygrass” value (canarygrass; [6]) of the same compound?
The value was 60.

What about the “Plant response rating, Canarygrass” value (canarygrass; [9]) of the same compound?
The value was 65.

And the “Plant response rating, Canarygrass” value (canarygrass; [7])?
The value was 40.

And the “Plant response rating, Canarygrass” value (canarygrass; [8])?
Its value is 40.

What about the “Plant response rating, Bromegrass, Downy” value (downy bromegrass [2]; [6]) of the same compound?
Its value is 55.

And the “Plant response rating, Bromegrass, Downy” value (downy bromegrass [2]; [9])?
Its value is 65.

And the “Plant response rating, Bromegrass, Downy” value (downy bromegrass [2]; [7])?
Its value is 45.

And the “Plant response rating, Bromegrass, Downy” value (downy bromegrass [2]; [8])?
The value was 45.

What about the “Plant response rating, Foxtail, Green” value (green foxtail; [6]) of the same compound?
The value was 60.

And the “Plant response rating, Foxtail, Green” value (green foxtail; [9])?
Its value is 65.

What about the “Plant response rating, Foxtail, Green” value (green foxtail; [7]) of the same compound?
Its value is 55.

What about the “Plant response rating, Foxtail, Green” value (green foxtail; [8]) of the same compound?
Its value is 55.

And the “Plant response rating, Ryegrass, Italian” value (Italian ryegrass; [9])?
The value was 65.

And the “Plant response rating, Ryegrass, Italian” value (Italian ryegrass; [7])?
The value was 40.

And the “Plant response rating, Ryegrass, Italian” value (Italian ryegrass; [8])?
Its value is 35.

And the “Plant response rating, Wheat” value (wheat; [9])?
The value was 35.

And the “Plant response rating, Wheat” value (wheat; [7])?
Its value is 20.

What about the “Plant response rating, Wheat” value (wheat; [8]) of the same compound?
The value was 0.

What about the “Plant response rating, Oat, Wild” value (wild oat; [9]) of the same compound?
The value was 65.

What about the “Plant response rating, Oat, Wild” value (wild oat; [7]) of the same compound?
The value was 40.

And the “Plant response rating, Oat, Wild” value (wild oat; [8])?
Its value is 30.

What about the “Plant response rating, Windgrass” value (windgrass; [9]) of the same compound?
The value was 70.

What about the “Plant response rating, Windgrass” value (windgrass; [7]) of the same compound?
Its value is 65.

What about the “Plant response rating, Windgrass” value (windgrass; [8]) of the same compound?
Its value is 60.

And the “Plant response rating, Barnyardgrass” value (barnyardgrass; 62 g ai/ha, scale 0 to 100)?
The value was 50.

What about the “Plant response rating, Barnyardgrass” value (barnyardgrass; 125 g ai/ha, scale 0 to 100) of the same compound?
The value was 100.

And the “Plant response rating, Barnyardgrass” value (barnyardgrass; [3])?
The value was 100.

And the “Plant response rating, Barnyardgrass” value (barnyardgrass; [4])?
The value was 100.

What about the “Plant response rating, Prickly Sida” value (prickly sida; 62 g ai/ha, scale 0 to 100) of the same compound?
Its value is 50.

And the “Plant response rating, Prickly Sida” value (prickly sida; 125 g ai/ha, scale 0 to 100)?
The value was 100.

And the “Plant response rating, Prickly Sida” value (prickly sida; [3])?
The value was 100.

And the “Plant response rating, Prickly Sida” value (prickly sida; [4])?
Its value is 100.

What about the “Plant response rating, Bromegrass, Downy” value (downy bromegrass [1]; 62 g ai/ha, scale 0 to 100) of the same compound?
Its value is 10.

What about the “Plant response rating, Bromegrass, Downy” value (downy bromegrass [1]; 125 g ai/ha, scale 0 to 100) of the same compound?
The value was 30.

What about the “Plant response rating, Bromegrass, Downy” value (downy bromegrass [1]; [3]) of the same compound?
Its value is 95.

And the “Plant response rating, Bromegrass, Downy” value (downy bromegrass [1]; [4])?
Its value is 95.

What about the “Plant response rating, Itchgrass” value (itchgrass; 62 g ai/ha, scale 0 to 100) of the same compound?
Its value is 50.

What about the “Plant response rating, Itchgrass” value (itchgrass; 125 g ai/ha, scale 0 to 100) of the same compound?
The value was 80.

And the “Plant response rating, Itchgrass” value (itchgrass; [3])?
The value was 90.

What about the “Plant response rating, Itchgrass” value (itchgrass; [4]) of the same compound?
The value was 95.

What about the “Plant response rating, Mallow” value (common mallow; 62 g ai/ha, scale 0 to 100) of the same compound?
Its value is 80.

What about the “Plant response rating, Mallow” value (common mallow; 125 g ai/ha, scale 0 to 100) of the same compound?
The value was 80.

What about the “Plant response rating, Mallow” value (common mallow; [3]) of the same compound?
Its value is 100.

And the “Plant response rating, Mallow” value (common mallow; [4])?
Its value is 100.
